Test results published in ChEMBL document CHEMBL5465560, “Selectivity Literature for EUbOPEN Chemogenomic Library” (2024).

Legend:
[1] = biological target: Serine/threonine-protein kinase WNK2 (Homo sapiens) (UniProt Q9Y3S1); assay: Selectivity interaction (KinomeScan (DiscoverX)) EUB0000229b WNK2; settings: at 10 µM
[2] = biological target: T1, Serine/threonine-protein kinase DCLK1 (Homo sapiens) (UniProt O15075); assay: Selectivity interaction (KinomeScan (DiscoverX)) EUB0000045b DCLK1
T1 sequence (whole entry): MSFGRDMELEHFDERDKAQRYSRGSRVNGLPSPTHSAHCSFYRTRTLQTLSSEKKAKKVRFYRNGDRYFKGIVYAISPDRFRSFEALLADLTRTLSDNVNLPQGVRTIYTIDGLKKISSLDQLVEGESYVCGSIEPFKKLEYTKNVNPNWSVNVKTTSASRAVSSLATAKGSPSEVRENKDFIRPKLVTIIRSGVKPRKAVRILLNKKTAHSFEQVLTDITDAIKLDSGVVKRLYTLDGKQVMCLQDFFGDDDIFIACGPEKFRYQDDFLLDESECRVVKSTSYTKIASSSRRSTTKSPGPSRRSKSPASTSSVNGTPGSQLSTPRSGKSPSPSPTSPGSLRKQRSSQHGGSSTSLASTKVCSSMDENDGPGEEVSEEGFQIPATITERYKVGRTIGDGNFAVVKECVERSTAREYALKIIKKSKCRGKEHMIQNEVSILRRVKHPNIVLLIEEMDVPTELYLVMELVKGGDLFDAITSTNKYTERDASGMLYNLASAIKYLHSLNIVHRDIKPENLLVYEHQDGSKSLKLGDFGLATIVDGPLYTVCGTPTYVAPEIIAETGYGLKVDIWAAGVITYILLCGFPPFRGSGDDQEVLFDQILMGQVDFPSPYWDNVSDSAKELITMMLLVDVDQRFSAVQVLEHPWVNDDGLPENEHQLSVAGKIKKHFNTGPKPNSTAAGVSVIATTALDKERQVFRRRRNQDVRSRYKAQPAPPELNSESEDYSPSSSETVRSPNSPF

[3] = biological target: Leukocyte tyrosine kinase receptor (Homo sapiens, UniProt P29376); assay: Selectivity interaction (Kinase panel (Z-LYTE Assay)) EUB0001632a LTK; settings: at 10 µM
[4] = biological target: Sodium channel protein type 2 subunit alpha (Homo sapiens) (UniProt Q99250); assay: Selectivity interaction (Panel of non-epigenetic targets (kinases, GPCRs, ion channels, and transporters, Eurofins) ) EUB0000271b SCN2A; settings: at 1 µM
[5] = biological target: T2, Serine/threonine-protein kinase 3 (Homo sapiens) (UniProt Q13188); assay: Selectivity interaction (KinomeScan (DiscoverX)) EUB0001619a STK3; settings: at 1 µM
T2 sequence (whole entry): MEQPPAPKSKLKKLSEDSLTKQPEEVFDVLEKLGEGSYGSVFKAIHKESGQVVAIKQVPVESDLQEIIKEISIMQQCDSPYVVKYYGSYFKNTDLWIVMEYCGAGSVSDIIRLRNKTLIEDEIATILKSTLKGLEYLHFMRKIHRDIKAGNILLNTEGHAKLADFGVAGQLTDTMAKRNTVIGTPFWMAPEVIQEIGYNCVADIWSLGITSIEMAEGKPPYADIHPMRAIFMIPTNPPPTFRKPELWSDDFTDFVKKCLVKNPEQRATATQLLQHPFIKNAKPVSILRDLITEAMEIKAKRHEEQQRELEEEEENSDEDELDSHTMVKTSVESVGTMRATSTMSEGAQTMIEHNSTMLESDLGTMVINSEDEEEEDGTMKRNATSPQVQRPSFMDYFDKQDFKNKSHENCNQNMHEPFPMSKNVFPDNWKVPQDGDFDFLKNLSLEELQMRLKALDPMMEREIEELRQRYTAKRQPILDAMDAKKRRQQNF

[6] = biological target: T3, Cyclin-dependent kinase 11A (Homo sapiens) (UniProt Q9UQ88); assay: Selectivity interaction (KinomeScan (DiscoverX)) EUB0000607a CDK11A; settings: at 10 µM
T3 sequence (whole entry): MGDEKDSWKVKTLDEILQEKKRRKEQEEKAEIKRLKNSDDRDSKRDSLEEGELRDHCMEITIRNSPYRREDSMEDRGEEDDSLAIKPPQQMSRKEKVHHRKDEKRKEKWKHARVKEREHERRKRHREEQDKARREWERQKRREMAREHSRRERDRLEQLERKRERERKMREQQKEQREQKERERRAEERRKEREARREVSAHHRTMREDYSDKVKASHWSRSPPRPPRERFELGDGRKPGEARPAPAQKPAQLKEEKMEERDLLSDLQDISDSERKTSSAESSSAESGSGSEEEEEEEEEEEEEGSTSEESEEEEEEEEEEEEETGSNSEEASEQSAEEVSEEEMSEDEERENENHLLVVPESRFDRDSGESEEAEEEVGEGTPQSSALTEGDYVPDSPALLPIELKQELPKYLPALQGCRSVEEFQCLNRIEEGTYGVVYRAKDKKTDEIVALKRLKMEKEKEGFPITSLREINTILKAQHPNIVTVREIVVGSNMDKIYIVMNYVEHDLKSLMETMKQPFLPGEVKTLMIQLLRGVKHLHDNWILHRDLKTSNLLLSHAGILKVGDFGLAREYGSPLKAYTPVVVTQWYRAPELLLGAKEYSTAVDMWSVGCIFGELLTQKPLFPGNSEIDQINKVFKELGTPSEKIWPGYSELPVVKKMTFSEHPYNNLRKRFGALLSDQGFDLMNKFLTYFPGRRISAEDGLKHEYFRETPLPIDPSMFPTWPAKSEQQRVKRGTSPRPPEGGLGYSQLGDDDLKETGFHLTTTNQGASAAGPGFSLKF

[7] = biological target: Serine/threonine-protein kinase 26 (Homo sapiens, UniProt Q9P289); assay: Selectivity interaction (KinomeScan (DiscoverX)) EUB0000618a STK26; settings: at 10 µM
[8] = biological target: T4, Activin receptor type-1 (Homo sapiens) (UniProt Q04771); assay: Selectivity interaction (KinomeScan (DiscoverX)) EUB0000655a ACVR1; settings: at 10 µM
T4 sequence (whole entry): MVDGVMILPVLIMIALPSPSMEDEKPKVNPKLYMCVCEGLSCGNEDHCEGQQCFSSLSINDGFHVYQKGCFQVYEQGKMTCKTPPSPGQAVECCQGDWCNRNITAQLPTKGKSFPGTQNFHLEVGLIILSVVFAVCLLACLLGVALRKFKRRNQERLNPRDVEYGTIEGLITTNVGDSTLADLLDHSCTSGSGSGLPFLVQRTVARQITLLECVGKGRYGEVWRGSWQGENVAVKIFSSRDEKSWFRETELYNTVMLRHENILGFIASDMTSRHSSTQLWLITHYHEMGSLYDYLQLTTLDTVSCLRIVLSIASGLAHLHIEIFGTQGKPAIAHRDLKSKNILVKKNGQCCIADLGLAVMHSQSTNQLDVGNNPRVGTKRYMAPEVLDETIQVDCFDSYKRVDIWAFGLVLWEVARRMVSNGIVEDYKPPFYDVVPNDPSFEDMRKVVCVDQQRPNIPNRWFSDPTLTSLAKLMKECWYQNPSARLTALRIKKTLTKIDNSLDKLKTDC

[9] = biological target: Mitogen-activated protein kinase 6 (Homo sapiens) (UniProt Q16659); assay: Selectivity interaction (Ambit KINOMEscan and KiNATiv profiling in Jurkat cells) EUB0000090b MAPK6; format: cell-based; settings: at 1 µM
Mitogen-activated protein kinase 6 (Homo sapiens), sequence (Q16659 whole entry): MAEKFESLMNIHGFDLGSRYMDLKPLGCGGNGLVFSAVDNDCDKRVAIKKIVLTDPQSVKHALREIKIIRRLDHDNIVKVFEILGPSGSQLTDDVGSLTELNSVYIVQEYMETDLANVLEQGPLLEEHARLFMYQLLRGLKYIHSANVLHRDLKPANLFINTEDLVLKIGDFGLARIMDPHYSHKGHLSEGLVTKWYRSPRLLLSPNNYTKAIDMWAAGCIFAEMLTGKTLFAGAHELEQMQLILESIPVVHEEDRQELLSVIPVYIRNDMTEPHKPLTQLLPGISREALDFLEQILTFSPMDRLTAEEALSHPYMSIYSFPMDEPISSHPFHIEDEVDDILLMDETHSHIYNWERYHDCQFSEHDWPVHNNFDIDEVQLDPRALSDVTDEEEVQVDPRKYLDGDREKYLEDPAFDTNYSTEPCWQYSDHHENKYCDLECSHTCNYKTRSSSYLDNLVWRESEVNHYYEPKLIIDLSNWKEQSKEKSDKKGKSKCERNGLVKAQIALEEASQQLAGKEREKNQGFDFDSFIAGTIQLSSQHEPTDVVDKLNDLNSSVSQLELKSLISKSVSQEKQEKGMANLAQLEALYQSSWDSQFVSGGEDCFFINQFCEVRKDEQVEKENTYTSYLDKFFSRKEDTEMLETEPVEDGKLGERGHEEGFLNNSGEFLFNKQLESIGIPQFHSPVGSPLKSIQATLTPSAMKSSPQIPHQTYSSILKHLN

Sodium channel protein type 2 subunit alpha (Homo sapiens), sequence (Q99250 whole entry, looked up): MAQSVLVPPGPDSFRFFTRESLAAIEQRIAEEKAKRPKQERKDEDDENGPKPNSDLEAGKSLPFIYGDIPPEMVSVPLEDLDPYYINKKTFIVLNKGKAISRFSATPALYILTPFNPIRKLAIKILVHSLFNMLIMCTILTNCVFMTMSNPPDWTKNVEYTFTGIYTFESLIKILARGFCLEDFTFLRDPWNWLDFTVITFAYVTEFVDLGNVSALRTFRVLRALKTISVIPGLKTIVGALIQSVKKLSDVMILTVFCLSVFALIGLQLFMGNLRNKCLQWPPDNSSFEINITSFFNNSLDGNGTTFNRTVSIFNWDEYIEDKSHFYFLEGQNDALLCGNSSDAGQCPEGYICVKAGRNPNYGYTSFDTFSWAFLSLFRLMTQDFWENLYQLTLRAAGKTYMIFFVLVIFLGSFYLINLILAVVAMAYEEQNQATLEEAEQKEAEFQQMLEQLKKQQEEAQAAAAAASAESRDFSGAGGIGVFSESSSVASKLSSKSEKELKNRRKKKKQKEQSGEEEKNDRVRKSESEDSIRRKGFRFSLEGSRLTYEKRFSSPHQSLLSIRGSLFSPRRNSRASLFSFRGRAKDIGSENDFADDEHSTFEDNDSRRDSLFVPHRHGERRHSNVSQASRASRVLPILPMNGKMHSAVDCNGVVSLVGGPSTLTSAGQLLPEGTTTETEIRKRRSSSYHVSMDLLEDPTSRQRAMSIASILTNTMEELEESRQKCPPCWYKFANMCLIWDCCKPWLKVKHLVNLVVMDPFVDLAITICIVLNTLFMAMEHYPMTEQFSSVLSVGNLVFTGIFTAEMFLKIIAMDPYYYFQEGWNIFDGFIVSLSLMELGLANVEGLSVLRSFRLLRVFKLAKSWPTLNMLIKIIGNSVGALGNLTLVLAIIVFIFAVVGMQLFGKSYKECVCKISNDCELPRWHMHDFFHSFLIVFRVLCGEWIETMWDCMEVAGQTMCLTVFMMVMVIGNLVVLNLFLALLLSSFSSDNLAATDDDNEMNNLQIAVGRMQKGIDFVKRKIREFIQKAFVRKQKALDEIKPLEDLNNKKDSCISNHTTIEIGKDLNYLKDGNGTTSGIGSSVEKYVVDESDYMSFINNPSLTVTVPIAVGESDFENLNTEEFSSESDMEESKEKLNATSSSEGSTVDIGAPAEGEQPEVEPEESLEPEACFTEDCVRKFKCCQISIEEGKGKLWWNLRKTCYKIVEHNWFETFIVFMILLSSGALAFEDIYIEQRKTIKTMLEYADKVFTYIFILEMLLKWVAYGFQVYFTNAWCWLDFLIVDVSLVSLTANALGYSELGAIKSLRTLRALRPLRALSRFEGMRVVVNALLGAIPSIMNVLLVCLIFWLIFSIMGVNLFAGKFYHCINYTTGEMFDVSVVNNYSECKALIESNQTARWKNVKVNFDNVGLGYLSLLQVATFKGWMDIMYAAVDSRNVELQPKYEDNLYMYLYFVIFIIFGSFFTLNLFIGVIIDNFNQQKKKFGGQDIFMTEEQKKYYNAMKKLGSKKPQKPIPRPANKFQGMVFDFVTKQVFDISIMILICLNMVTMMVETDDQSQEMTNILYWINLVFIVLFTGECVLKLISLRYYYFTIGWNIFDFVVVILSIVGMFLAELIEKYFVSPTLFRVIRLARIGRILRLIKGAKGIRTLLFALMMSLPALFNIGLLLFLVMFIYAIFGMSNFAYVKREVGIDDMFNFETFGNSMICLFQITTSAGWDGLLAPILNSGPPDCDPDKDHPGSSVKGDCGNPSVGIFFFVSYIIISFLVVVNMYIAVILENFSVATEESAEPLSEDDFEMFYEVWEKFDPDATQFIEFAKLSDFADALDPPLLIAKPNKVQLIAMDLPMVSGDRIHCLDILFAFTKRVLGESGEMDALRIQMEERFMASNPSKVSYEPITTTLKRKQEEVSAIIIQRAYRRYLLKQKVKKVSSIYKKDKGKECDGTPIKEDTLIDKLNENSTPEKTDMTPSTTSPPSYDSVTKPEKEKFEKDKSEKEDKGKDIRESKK
Leukocyte tyrosine kinase receptor, sequence (P29376 whole entry): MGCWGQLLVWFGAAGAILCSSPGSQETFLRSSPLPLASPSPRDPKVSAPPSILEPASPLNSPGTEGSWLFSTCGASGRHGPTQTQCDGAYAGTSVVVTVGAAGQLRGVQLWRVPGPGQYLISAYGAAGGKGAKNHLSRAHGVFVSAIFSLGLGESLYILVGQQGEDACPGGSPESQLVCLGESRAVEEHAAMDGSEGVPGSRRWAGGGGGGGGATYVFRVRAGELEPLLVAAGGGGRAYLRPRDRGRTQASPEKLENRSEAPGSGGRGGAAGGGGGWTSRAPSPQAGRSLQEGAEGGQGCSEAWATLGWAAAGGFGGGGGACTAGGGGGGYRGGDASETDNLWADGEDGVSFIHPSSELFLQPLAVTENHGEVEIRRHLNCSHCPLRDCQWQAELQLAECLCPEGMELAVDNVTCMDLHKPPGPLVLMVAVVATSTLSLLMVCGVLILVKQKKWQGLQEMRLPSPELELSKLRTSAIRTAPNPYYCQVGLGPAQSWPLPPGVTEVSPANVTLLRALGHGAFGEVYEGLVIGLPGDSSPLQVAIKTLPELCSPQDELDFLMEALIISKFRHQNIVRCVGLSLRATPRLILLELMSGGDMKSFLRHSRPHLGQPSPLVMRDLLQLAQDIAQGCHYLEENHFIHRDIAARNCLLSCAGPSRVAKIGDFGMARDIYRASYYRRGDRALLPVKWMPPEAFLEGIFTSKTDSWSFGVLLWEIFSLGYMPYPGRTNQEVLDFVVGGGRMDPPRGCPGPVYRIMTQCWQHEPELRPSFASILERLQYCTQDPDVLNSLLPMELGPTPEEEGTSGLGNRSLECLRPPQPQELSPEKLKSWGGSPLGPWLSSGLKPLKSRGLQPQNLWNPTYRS
Serine/threonine-protein kinase 26, sequence (Q9P289 2-416 limits assumed): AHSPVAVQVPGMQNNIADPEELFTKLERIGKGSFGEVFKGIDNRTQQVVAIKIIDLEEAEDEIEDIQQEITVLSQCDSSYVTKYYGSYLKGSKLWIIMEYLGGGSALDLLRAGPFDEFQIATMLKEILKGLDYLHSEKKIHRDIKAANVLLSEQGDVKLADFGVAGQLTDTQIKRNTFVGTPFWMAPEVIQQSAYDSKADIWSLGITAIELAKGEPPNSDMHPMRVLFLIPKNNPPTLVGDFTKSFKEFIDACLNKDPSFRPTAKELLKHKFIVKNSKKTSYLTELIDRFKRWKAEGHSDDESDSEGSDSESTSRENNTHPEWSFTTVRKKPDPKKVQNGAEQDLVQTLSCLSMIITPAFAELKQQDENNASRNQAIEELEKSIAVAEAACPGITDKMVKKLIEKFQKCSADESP

Q: `COc1cc(N(C)c2ccnc3ccc(C(F)(F)F)cc23)cc(OC)c1OC` was tested. Which % binding [1] did it give?
A: 100%

Q: For `C=CC(=O)Nc1cc(-n2c(=O)ccc3cnc4ccc(-c5ccc(NS(C)(=O)=O)cc5)cc4c32)ccc1C`, which % of control ([2]; at 1 µM) is on record?
A: 100%

Q: What about the % of control ([2]; at 10 µM) of the same compound?
A: 84%

Q: With `Cn1cc(-n2cnc3c(NCc4nc5cc(Cl)c(Cl)cc5[nH]4)nc(N4CCOCC4)nc32)cn1` as the compound, how does the % of control [3] read?
A: 3.23%

Q: How did the % of inhibition [4] turn out when `Cc1cc(C)cc([C@@H]2c3cc(C)ccc3NC(=O)CN2C(=O)c2ccc(Br)s2)c1` was run?
A: -22%

Q: `N#Cc1cccc(-c2c[nH]c3ncnc(N4CCOCC4)c23)c1` was tested. Which % of control [5] did it give?
A: 1.8%

Q: With `CNC(=O)Nc1ccc(-c2nc(N3CC4CCC(C3)O4)c3cnn(C4CCC5(CC4)OCCO5)c3n2)cc1` as the compound, how does the % of control [6] read?
A: 100%

Q: For `O[C@H]1CC[C@H](Nc2ncc3nc(Nc4c(F)cc(F)cc4F)n([C@H]4CCOC4)c3n2)CC1`, which % of control [7] is on record?
A: 82%

Q: Which % of control [8] does the source give for `CN(C)CCOc1ccc(-c2nc(-c3ccncc3)c(-c3ccc4c(c3)CC/C4=N\O)[nH]2)cc1` here?
A: 51%

Q: With `CN(C)C/C=C/C(=O)Nc1ccc(C(=O)N2CCCC(Nc3ncc(Cl)c(-c4c[nH]c5ccccc45)n3)C2)cc1` (stereo not given) as the compound, how does the % of control [9] read?
A: 40%
